What is called IC50 is the concentration needed to halve the response being measured.

Results on 2 molecules are retold here after patent publication US7868030B2, “FBPase inhibitors for diabetes” (Hoffmann-La Roche Inc., priority 2006, dated 2011).

The test has as its target T1, human liver FBPase (Homo sapiens, UniProt P09467).
T1 construct: made in house; host or cells: E. coli
T1 sequence (P09467 2-338 limits assumed): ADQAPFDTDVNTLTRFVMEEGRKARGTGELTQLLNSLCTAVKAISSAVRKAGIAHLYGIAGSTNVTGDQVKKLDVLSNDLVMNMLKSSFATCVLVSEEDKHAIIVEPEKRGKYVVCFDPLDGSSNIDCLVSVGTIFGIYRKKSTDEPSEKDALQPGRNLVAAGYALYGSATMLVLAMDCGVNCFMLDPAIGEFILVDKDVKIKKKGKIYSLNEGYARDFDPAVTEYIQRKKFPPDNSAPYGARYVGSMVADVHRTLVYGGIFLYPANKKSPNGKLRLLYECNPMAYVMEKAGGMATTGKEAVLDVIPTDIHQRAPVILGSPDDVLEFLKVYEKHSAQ
In words: FBPase assay (inorganic phosphate release, malachite green). To be noted: recombinant human liver FBPase, 50 μM fructose-1,6-bisphosphate, read-out at 620 nm. The class given is biochemical. The protocol: The following tests were carried out for evaluating the inhibitory activity of the compounds of the present invention against human liver FBPase (Swissprot Data base reference PO9467, entry F16P_HUMAN).
Enzyme preparation: Human liver FBPase cDNA (NM_000507) was purchased from Origene Technologies, Inc, subcloned in a vector for expression in E. Coli., and sequenced. Recombinant human liver FBPase (hlFBPase) was purified according to the following protocol that uses heat denaturation similarly to that described by El-Maghrabi et. al. [El-Maghrabi, M. R. et al. “Isolation of a human liver fructose-1,6-bisphosphatase cDNA and expression of the protein in Escherichia coli.” J Biol Chem 268:9466-9472, 1993.]. […] Purity of the enzyme preparation was >90% as assessed by Mass spectrometry.
In vitro activity: Recombinant human liver FBPase (hlFBPase) activity was assayed through measuring the inorganic phosphate release that results from the hydrolysis of Fructose-1,6-bisphosphate by the enzyme. […] Anal. Biochem., 171:266-270, 1988], inorganic phosphate can be readily quantified by spectrophotometry at 620 nm after complexation with ammonium molybdate/malachite green reagent. […] Under these conditions, the assay was linear with time and able to detect FBPase inhibition after spectrophotometric read-out at 620 nm.

Each structure is given as a SMILES string.

On to `Cc1cccc(S(=O)(=O)NC(=O)Nc2ncc(Br)s2)c1` [Example 5, N-[(5-Bromo-1,3-thiazol-2-yl)carbamoyl]-3-methylbenzenesulfonamide], for which the IC50 stood at 250 nM.
With `COc1ccc(-c2sc(S(=O)(=O)NC(=O)Nc3ncc(Br)s3)cc2C)cc1` [Example 52, N-[(5-Bromo-1,3-thiazol-2-yl)carbamoyl]-5-(4-methoxyphenyl)-4-methyl-thiophene-2-sulfonamide], the IC50 came out at 65 nM.
